{
  "source": "paper PMC4942689",
  "about": "“Deciphering the function of the CNGB1b subunit in olfactory CNG channels” (Scientific Reports, 2016)",
  "key": {"CNGA2TM:B1b": {"target": "T1, CNGA2TM:B1b (Rattus norvegicus, UniProt A0A8I5ZN27+Q00195, T539M)", "T1 construct": "expressed in transfected cells; host or cells: Xenopus laevis oocytes (cRNA injection), excised patches", "T1 sequence (Q00195 whole entry T539M)": "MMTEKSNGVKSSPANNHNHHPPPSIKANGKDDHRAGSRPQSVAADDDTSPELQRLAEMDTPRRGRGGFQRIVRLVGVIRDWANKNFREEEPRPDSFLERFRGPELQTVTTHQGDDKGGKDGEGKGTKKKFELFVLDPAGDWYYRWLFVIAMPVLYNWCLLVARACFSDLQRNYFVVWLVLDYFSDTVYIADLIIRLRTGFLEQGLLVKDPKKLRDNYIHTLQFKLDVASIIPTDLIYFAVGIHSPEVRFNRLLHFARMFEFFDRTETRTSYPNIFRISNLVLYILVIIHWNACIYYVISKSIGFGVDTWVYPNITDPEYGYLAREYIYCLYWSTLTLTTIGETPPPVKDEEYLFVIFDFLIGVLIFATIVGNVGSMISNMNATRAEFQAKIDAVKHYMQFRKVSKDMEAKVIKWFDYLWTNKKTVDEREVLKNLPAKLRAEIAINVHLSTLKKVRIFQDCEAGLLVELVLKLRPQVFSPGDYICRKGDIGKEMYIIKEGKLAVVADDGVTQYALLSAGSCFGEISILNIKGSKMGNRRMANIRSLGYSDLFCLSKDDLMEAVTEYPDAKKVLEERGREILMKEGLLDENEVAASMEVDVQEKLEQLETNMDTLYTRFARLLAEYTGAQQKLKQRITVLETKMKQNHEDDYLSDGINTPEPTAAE", "T1 sequence (A0A8I5ZN27 1-858 isoform A0A8I5ZN27-2, stated change not applied)": "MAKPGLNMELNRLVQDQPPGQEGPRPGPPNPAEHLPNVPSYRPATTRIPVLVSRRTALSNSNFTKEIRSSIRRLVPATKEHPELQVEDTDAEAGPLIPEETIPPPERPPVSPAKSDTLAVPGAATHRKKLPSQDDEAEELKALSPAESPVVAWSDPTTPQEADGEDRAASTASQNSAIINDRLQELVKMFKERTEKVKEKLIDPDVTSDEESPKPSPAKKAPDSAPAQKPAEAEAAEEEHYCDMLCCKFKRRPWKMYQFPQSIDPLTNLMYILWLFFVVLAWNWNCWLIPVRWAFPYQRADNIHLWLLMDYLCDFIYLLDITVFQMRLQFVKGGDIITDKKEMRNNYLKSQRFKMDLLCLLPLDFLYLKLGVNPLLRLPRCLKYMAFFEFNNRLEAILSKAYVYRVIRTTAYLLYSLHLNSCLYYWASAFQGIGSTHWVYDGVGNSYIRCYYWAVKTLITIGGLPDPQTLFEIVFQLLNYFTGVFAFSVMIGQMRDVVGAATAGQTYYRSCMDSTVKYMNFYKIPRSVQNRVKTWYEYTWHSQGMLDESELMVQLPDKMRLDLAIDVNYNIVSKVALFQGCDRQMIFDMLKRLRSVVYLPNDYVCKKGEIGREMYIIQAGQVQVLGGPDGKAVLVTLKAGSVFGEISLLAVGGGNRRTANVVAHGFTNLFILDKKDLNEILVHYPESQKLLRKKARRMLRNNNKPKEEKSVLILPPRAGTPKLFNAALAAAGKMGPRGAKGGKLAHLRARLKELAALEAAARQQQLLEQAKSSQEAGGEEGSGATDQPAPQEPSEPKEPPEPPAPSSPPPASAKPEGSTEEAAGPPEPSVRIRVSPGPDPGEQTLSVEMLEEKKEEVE", "experiment": "Ligand binding, confocal patch-clamp fluorometry", "parameters": "key to Ligand binding to CNGB1b: +: ligand binding to the respective modulatory subunits was either observed or not; −: ligand binding to the respective modulatory subunits was either observed or not", "from_the_text": "(§1) The channels to be studied were expressed in Xenopus oocytes. We first tested the subunit composition in our channels when coexpressing different combinations of subunits by single-channel recordings. For CNGA2:A4, CNGA2:B1b and CNGA2:A4:B1b channels we exclusively obtained the specific and easily distinguishable single-channel activity reported earlier when injecting respective amounts of RNA[7][13]. We therefore assumed that the channels formed had always the expected subunit composition. The specific binding of cyclic nucleotides and the activation of the CNG channels were measured in parallel by means of confocal patch-clamp fluorometry in excised patches, using fluorescent cyclic nucleotide derivatives. The method has been described previously.\n(§2) To study ligand binding to the CNGB1b subunit selectively, the binding domain of the CNGA2 subunits was disabled by either the point mutation R538E (red crosses in the cartoons) or T539M (blue crosses in the cartoons)[13][20]. […] To this end, CNGB1b was coexpressed with CNGA2RE.\n(§3) The ligand binding was measured in macropatches by patch-clamp fluorometry[41][42] combined with confocal microscopy. […] Recordings were performed with an LSM 510 or 710 confocal microscope (Zeiss, Jena, Germany) and were triggered by the ISO3 software (MFK, Niedernhausen, Germany). To distinguish between the fluorescence of the unbound ligands from that of the bound ligands, a second dye, DY647 (Dyomics, Jena, Germany), was added to the bath solution. The 543-nm and 633-nm lines of a He-Ne laser were used to excite fcAMP/fcGMP and DY647, respectively. The method of confocal patch-clamp fluorometry has been described in detail previously."}, "CNGA2RE:B1b": {"target": "T2, CNGA2RE:B1b (Rattus norvegicus, UniProt A0A8I5ZN27+Q00195, R538E)", "T2 construct": "expressed in transfected cells; host or cells: Xenopus laevis oocytes (cRNA injection), excised patches", "T2 sequence (Q00195 whole entry R538E)": "as the sequence (Q00195 whole entry T539M) above, with R538E, M539T counted along it", "T2 sequence (A0A8I5ZN27 1-858 isoform A0A8I5ZN27-2, stated change not applied)": "as the sequence (A0A8I5ZN27 1-858 isoform A0A8I5ZN27-2, stated change not applied) above", "experiment": "Ligand binding, confocal patch-clamp fluorometry", "parameters": "key to Ligand binding to CNGB1b: +: ligand binding to the respective modulatory subunits was either observed or not; −: ligand binding to the respective modulatory subunits was either observed or not", "details": "10 μM; construct CNGA2RE:B1b", "from_the_text": "as §1, §2, §3"}, "CNGA2TM:A4RE:B1bRE": {"target": "T3, CNGA2TM:A4RE:B1bRE (Rattus norvegicus, UniProt A0A8I5ZN27+Q00195+Q64359, R1106E/R430E/T539M)", "T3 construct": "expressed in transfected cells; host or cells: Xenopus laevis oocytes (cRNA injection), excised inside-out patches", "T3 sequence (Q00195 whole entry T539M)": "as the sequence (Q00195 whole entry T539M) above", "T3 sequence (Q64359 whole entry R430E)": "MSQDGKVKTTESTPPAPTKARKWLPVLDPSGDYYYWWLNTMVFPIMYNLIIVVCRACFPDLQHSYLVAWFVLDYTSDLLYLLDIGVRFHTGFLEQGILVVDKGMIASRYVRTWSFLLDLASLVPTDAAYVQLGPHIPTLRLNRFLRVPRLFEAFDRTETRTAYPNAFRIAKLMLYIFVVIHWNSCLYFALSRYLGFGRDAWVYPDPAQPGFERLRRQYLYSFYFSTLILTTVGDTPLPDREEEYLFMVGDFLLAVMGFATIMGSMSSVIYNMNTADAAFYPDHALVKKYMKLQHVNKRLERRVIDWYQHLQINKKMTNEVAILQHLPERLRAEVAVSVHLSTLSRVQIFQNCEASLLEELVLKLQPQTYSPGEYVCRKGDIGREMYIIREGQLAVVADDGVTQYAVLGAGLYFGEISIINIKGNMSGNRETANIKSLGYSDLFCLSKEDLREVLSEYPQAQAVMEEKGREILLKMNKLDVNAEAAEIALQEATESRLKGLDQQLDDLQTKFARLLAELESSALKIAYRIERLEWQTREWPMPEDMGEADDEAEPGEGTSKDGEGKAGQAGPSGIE", "T3 sequence (A0A8I5ZN27 1-858 isoform A0A8I5ZN27-2 R657E)": "as the sequence (A0A8I5ZN27 1-858 isoform A0A8I5ZN27-2, stated change not applied) above, with R657E counted along it", "experiment": "Ligand binding, confocal patch-clamp fluorometry", "parameters": "key: +: ligand binding to the respective modulatory subunits was either observed or not; −: ligand binding to the respective modulatory subunits was either observed or not", "details": "10 μM; construct CNGA2TM:A4RE:B1bRE", "from_the_text": "as §1\nTo verify the hypothesis that the CNGB1b subunit in CNGA2:A4:B1b channels binds cyclic nucleotides, we coexpressed CNGB1b with CNGA4RE and either CNGA2RE or CNGA2TM and measured ligand binding in the presence of 10 μM fcGMP. […]\nThe ligand binding was measured in macropatches by patch-clamp fluorometry[41][42] combined with confocal microscopy. […] To distinguish between the fluorescence of the unbound ligands from that of the bound ligands, a second dye, DY647 (Dyomics, Jena, Germany), was added to the bath solution. […]"}, "[1]": {"tested_on": "concatameric homotetrameric CNGA2 channels with three disabled subunits", "parameters": "method as in PMID 26858151", "details": "read-out: EC50 of one CNGA2 subunit; cited from earlier work"}, "CNGA2:A4:B1b channels": {"target": "T4, CNGA2:A4:B1b channels (Rattus norvegicus, UniProt A0A8I5ZN27+Q00195+Q64359)", "T4 construct": "expressed in transfected cells; host or cells: Xenopus laevis oocytes (cRNA injection 2:1:1), excised inside-out patches", "T4 sequence (Q00195 whole entry)": "as the sequence (Q00195 whole entry T539M) above, with M539T counted along it", "T4 sequence (Q64359 whole entry)": "as the sequence (Q64359 whole entry R430E) above, with E430R counted along it", "T4 sequence (A0A8I5ZN27 1-858 isoform A0A8I5ZN27-2)": "as the sequence (A0A8I5ZN27 1-858 isoform A0A8I5ZN27-2, stated change not applied) above", "experiment": "Activation and deactivation time courses after fast concentration jumps", "assay_type": "biochemical", "details": "+10 mV, monoexponential fit", "protocol": "To characterize the contribution of each subunit to the kinetics of channel gating, we also studied activation and deactivation time courses for CNGA2:A4:B1b, CNGA2, CNGA2RE:A4RE:B1b and CNGA2RE:A4:B1b RE channels. Fast concentration jumps from zero to 10 μM cGMP and back to zero were applied with the help of a piezo-driven switch pipette. Activation (Fig. 4a) and deactivation (Fig. 4b) time courses were fitted with a single exponential or the sum of two exponential functions in case of the CNGA2RE:A4RE:B1b channel. The obtained time constants are shown in bar graphs below the traces. In case of the biexponential time courses a mean time constant was obtained according to equation (S1) (Supplementary Information). CNGA2RE:A4RE:B1b channel activation triggered by CNGB1b only is the slowest, followed by that of CNGA4 only in CNGA2RE:A4:B1bRE channels and homotetrameric CNGA2 channels.\nFigure 4 Effects of the CNGB1b and CNGA4 subunit on the kinetics of channel activation and deactivation. […]\nPatch-clamp experiments were performed using an Axopatch 200B amplifier (Molecular Devices LLC, CA, U.S.A.) in the inside-out configuration. […] The currents were measured at +10 mV or, if mentioned, at +100 mV."}},
  "data": [
    {"compound": "8-[DY-547]-AET-cGMP [fcGMP]", "values": [
      {"measurement": "binding to CNGB1b (in words)", "setting": "CNGA2TM:B1b; 10 μM fcGMP, coexpressed with disabled CNGA2 (CNGA2TM)", "result": "does not bind"},
      {"measurement": "Ligand binding to CNGB1b", "setting": "CNGA2TM:B1b; 10 μM, construct CNGA2TM:B1b", "result": "−"},
      {"measurement": "Ligand binding to CNGB1b", "setting": "CNGA2RE:B1b", "result": "−"},
      {"measurement": "Ligand binding to CNGA4", "setting": "CNGA2TM:A4RE:B1bRE", "result": "−"},
      {"measurement": "Ligand binding to CNGB1b", "setting": "CNGA2TM:A4RE:B1bRE", "result": "−"}
    ]},
    {"compound": "Nc1nc2c(ncn2[C@@H]2O[C@@H]3COP(=O)(O)O[C@H]3[C@H]2O)c(=O)[nH]1", "note": "[cGMP]", "values": [
      {"measurement": "EC50", "setting": "[1]", "result": 22.2, "unit": "µM"},
      {"measurement": "deactivation time constant", "setting": "CNGA2:A4:B1b channels; concentration jump from 10 μM back to zero", "result": "~ 120 ms"},
      {"measurement": "activation time constant", "setting": "CNGA2:A4:B1b channels; concentration jump from zero to 10 μM", "result": "~ 17 ms"}
    ]}
  ]
}
